PubChem BioAssay (NCI)
Values joined by “and” are separate entries in the source; they are usually repeats but may differ in a detail not shown here. Equal entries are not always repeated.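 Following 48 hours of exposure in 96-well plates, responses at five concentrations were used to interpolate endpoints linearly. GI50 = concentration required for 50% inhibition of growth. TGI: total growth inhibition.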 Where a SMILES comes first, the peptide text is derived from it. [ ]: non-standard residue; d: D form. The star is where a group is joined. ξ: configuration not given here. dIva = CC[C@@](C)(N)C(=O)O; Aib = CC(C)(N)C(=O)O; ξP = O=C(O)C1CCCN1; βAla = NCCC(=O)O; X5 = OCN*

Test system: MDA-MB-468 breast
Test: NCI-60 cell line screen, 48 h

| SMILES | GI50 | TGI |
| --- | --- | --- |
| CC[C@@](C)(NC(=O)[C@H](C)NC(=O)CCNC(=O)C(C)(C)NC(=O)[C@H](C)NC(=O)[C@@H]1CCCN1C(=O)[C@@](C)(CC)NC(=O)[C@H](Cc1ccccc1)NC(=O)C1CCCN1C(=O)C(C)(C)NC(=O)C1CCCN1C(=O)C(C)(C)NC(C)=O)C(=O)NCCC(=O)N[C@@H](CC(C)C)C(=O)NC(C)(C)C(=O)NCCC(=O)N[C@@H](CC(C)C)C(=O)NC(C)(C)C(=O)NC(C)(C)C(=O)N[C@@H](CC(C)C)C(=O)NCCC(=O)NCO (some centres not stated) (Ac-[Aib][ξP][Aib][ξP]F[dIva]PA[Aib][βAla]A[dIva][βAla]L[Aib][βAla]L[Aib][Aib]L[βAla]-X5) | 52.8 nM | 163 nM |
| Nc1nc(N)c(-c2ccc(Cl)cc2)c(/C=C/c2ccc([N+](=O)[O-])cc2)n1 | 3020 nM | > 100000 nM |
| CN1CCN(Cc2ccc(NC(=O)c3cncc(C#Cc4ncc5ccccn45)c3)cc2C(F)(F)F)CC1 | 2780 nM | 7900 nM |
| COC(=O)CCc1c(/C=C2\N=C(c3ccc[nH]3)C=C2OC)[nH]c(C)c1C(=O)OCc1ccccc1 | 842 nM | 4400 nM |
| CC(=O)N1c2ccc(-c3ccc(C(=O)O)cc3)cc2[C@H](Nc2ccc(Cl)cc2)C[C@@H]1C | 131 nM | 17300 nM |
| CN1C(=O)C(C)(C)Oc2c(-c3cn(C)c(=O)c4[nH]ccc34)cc(S(C)(=O)=O)cc21 | 551 nM | 3700 nM |
| O=C1/C(=C/c2cccc(F)c2)CN(C(=O)C(Cl)Cl)C/C1=C\c1cccc(F)c1 | 207 nM | 529 nM |
| O=C1C=C(OCC=C(Cl)Cl)C(=O)c2ccccc21 | 1050 nM | 3600 nM |
| COC(=O)[C@]1(C)CC[C@]2(C)CC[C@]3(C)C(=CC(=O)[C@@H]4[C@@]5(C)CCC(=O)NC(C)(C)[C@@H]5CC[C@]43C)[C@@H]2C1 | 18300 nM | 64200 nM |
| COc1cc[nH]c1/C=C1\C(=O)Nc2ccc([N+](=O)[O-])c(N3CC[C@@H](O)C3)c21 | 352 nM | 995 nM |
| COc1ccc2c(c1)NC(=O)CN2c1nc(C)nc2ccccc12 | 0.415 nM | – |
| CCC(=O)OCN1C(=O)C=CC1=O | 14100 nM | 32400 nM |
| O=S1(=O)C=C(c2ccccc2)C(c2ccccc2)=C1 | 1140 nM | 2460 nM |
| NC(N)=N/N=C/c1ccc(Br)cc1 | 1500 nM | 4810 nM |
| CC(CNc1nc(Nc2ccc(Cl)c(Cl)c2)nc(C(Cl)(Cl)Cl)n1)N(C)C (configuration not stated) | 1470 nM | 2850 nM |
| COc1ccc(/C=C/C(=O)/C=C(/C=C/c2ccc(OC)c(OC)c2OC)OB(F)F)c(OC)c1OC | 2570 nM | 9650 nM |
| NS(=O)(=O)c1ccc(N=Nc2c(=O)[nH]c3ccc4[nH]cccc4c23)cc1 | 73.3 nM | 257 nM |
| COc1ccccc1/C=C/C=N/NC1=NC2C(S1)N(C)C(=O)N2c1ccccc1 (configuration not stated) | 428 nM | 31000 nM |
| C=CC(=O)Nc1cccc(Nc2nc(Nc3ccc(N4CCN(C(C)=O)CC4)cc3OC)ncc2C(F)(F)F)c1 | 288 nM and 266 nM | 1980 nM and 1620 nM |
| CC(=O)Nc1nc(C)c(-c2cc3c(c(S(C)(=O)=O)c2)C(=O)N([C@@H](C)C2CC2)C3)s1 | 31600 nM | > 100000 nM |
| CNCC1CCn2c(c(C3=C(c4cn(C)c5ccccc45)C(=O)NC3=O)c3ccccc32)C1 (configuration not stated) | 2620 nM | 6580 nM |
| CN1CCN(Cc2ccc(NC(=O)c3[nH]ncc3Nc3cc(OC4CCCC4)ncn3)cc2)CC1 | 1980 nM | 4770 nM |
| COc1ccc(-c2c(C#N)cnc(N)c2-c2nc3cc(C)c(C)cc3[nH]2)cc1 | 6220 nM | 23100 nM |
| COc1cc(OC)c2c(c1Cl)O[C@]1(C2=O)C(OCc2ccccc2)=CC(=O)C[C@H]1C | 741 nM | 47500 nM |
